# PubChem BioAssay AID248 (DTP/NCI, 2004)
# Where “and” joins values, the source holds several entries; their conditions need not be identical. Equal entries are not always repeated. Toxic doses and inconclusive results are not listed.
# System: L1210 leukemia ip in BDF1 mice, survival T/C
# Assay: NCI In Vivo Anticancer Drug Screen. Data for tumor model L1210 Leukemia (intraperitoneal) in B6D2F1 (BDF1) mice
# Details: endpoint: mean survival time, higher = longer survival
# Summary of the method: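 Survival endpoint. Drug-treated group vs vehicle group, expressed as T divided by C. Tumor passaged by transplantation.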
# [1] = dose: 100.0 mg/kg/injection, schedule: Q01DX009 (ip), vehicle: saline
# [2] = dose: 200.0 mg/kg/injection, schedule: Q01DX009 (ip), vehicle: saline
# [3] = dose: 50.0 mg/kg/injection, schedule: Q01DX001 (ip), vehicle: saline
# [4] = dose: 100.0 mg/kg/injection, schedule: Q01DX001 (ip), vehicle: saline
# [5] = dose: 200.0 mg/kg/injection, schedule: Q01DX001 (ip), vehicle: saline
# [6] = dose: 25.0 mg/kg/injection, schedule: Q01DX009 (ip), vehicle: saline with Tween-80
# [7] = dose: 25.0 mg/kg/injection, schedule: Q04DX003 (ip), vehicle: saline with Tween-80
# [8] = dose: 50.0 mg/kg/injection, schedule: Q01DX009 (ip), vehicle: saline with Tween-80
# [9] = dose: 50.0 mg/kg/injection, schedule: Q04DX003 (ip), vehicle: saline with Tween-80
# [10] = dose: 100.0 mg/kg/injection, schedule: Q01DX009 (ip), vehicle: saline with Tween-80
# [11] = dose: 100.0 mg/kg/injection, schedule: Q04DX003 (ip), vehicle: saline with Tween-80
# [12] = dose: 200.0 mg/kg/injection, schedule: Q04DX003 (ip), vehicle: saline with Tween-80
# [13] = dose: 400.0 mg/kg/injection, schedule: Q04DX003 (ip), vehicle: saline with Tween-80
# [14] = dose: 100.0 mg/kg/injection, schedule: Q04DX003 (ip), vehicle: saline
# [15] = dose: 200.0 mg/kg/injection, schedule: Q04DX003 (ip), vehicle: saline
# [16] = dose: 400.0 mg/kg/injection, schedule: Q04DX003 (ip), vehicle: saline
# [17] = dose: 100.0 mg/kg/injection, schedule: Q01DX001 (ip), vehicle: saline with Tween-80
# [18] = dose: 200.0 mg/kg/injection, schedule: Q01DX001 (ip), vehicle: saline with Tween-80
# [19] = dose: 400.0 mg/kg/injection, schedule: Q01DX001 (ip), vehicle: saline with Tween-80
smiles,measurement,setting,value
CCOS(=O)(=O)c1ccc([N+](=O)[O-])cc1[N+](=O)[O-],T/C,[1],97 % of control
same,T/C,[2],92 % of control
C[N+]1=C(/C=C/c2ccc(O)c3ncccc23)C(C)(C)c2ccccc21,T/C,"dose: 7.5 mg/kg/injection, schedule: Q01DX009 (ip), vehicle: saline",93 % of control
same,T/C,"dose: 12.5 mg/kg/injection, schedule: Q01DX001 (ip), vehicle: saline",106 % of control
same,T/C,"dose: 15.0 mg/kg/injection, schedule: Q01DX009 (ip), vehicle: saline",109 % of control
same,T/C,"dose: 25.0 mg/kg/injection, schedule: Q01DX001 (ip), vehicle: saline",101 % of control
same,T/C,"dose: 30.0 mg/kg/injection, schedule: Q01DX009 (ip), vehicle: saline",104 % of control
same,T/C,[3],113 % of control
same,T/C,"dose: 60.0 mg/kg/injection, schedule: Q01DX009 (ip), vehicle: saline",101 % of control
same,T/C,[4],92 % of control and 117 % of control
same,T/C,[5],112 % of control
Cc1ccc(N=NN(C)C)cc1,T/C,"dose: 12.5 mg/kg/injection, schedule: Q01DX009 (ip), vehicle: saline with Tween-80",97 % of control
same,T/C,[6],103 % of control
same,T/C,[7],105 % of control
same,T/C,"dose: 26.6 mg/kg/injection, schedule: Q01DX Z (ip), vehicle: methylcellulose (MC)",104 % of control
same,T/C,"dose: 31.25 mg/kg/injection, schedule: Q01DX001 (ip), vehicle: saline with Tween-80",108 % of control
same,T/C,"dose: 40.0 mg/kg/injection, schedule: Q01DX Z (ip), vehicle: methylcellulose (MC)",118 % of control
same,T/C,[8],103 % of control
same,T/C,[9],103 % of control
same,T/C,"dose: 62.5 mg/kg/injection, schedule: Q01DX001 (ip), vehicle: saline with Tween-80",110 % of control
same,T/C,"dose: 90.0 mg/kg/injection, schedule: Q01DX Z (ip), vehicle: methylcellulose (MC)",165 % of control
same,T/C,[10],104 % of control
same,T/C,[11],110 % of control
same,T/C,"dose: 180.0 mg/kg/injection, schedule: Q01DX Z (ip), vehicle: carboxymethylcellulose (CMC)",102 % of control
same,T/C,[12],109 % of control
Nc1ccc2c(ccc3cccc[n+]32)c1,T/C,[4],105 % of control
same,T/C,[5],108 % of control
CCOC(=O)C(=O)Nc1ccc([N+](=O)[O-])cc1,T/C,[11],87 % of control
same,T/C,[12],98 % of control
same,T/C,[13],87 % of control
O=[N+]([O-])c1ccc(N=C=C(c2ccccc2)c2ccccc2)cc1,T/C,"dose: 100.0 mg/kg/injection, schedule: Q04DX002 (ip), vehicle: DMSO",112 % of control
same,T/C,"dose: 200.0 mg/kg/injection, schedule: Q04DX002 (ip), vehicle: DMSO",91 % of control
same,T/C,"dose: 400.0 mg/kg/injection, schedule: Q04DX002 (ip), vehicle: DMSO",94 % of control
O=C(CCl)NCCO,T/C,[14],108 % of control
same,T/C,[15],90 % of control
same,T/C,[16],104 % of control
CCCCN(C)N=Nc1ccc(CCC(=O)NN)cc1,T/C,"dose: 33.0 mg/kg/injection, schedule: Q01DX009 (ip), vehicle: carboxymethylcellulose (CMC)",107 % of control
same,T/C,"dose: 50.0 mg/kg/injection, schedule: Q01DX009 (ip), vehicle: carboxymethylcellulose (CMC)",101 % of control
O=C(O)COCC(F)(F)C(F)(F)C(F)(F)COCC(=O)O,T/C,[1],92 % of control
same,T/C,[14],97 % of control
same,T/C,[2],97 % of control
same,T/C,[15],98 % of control
same,T/C,"dose: 400.0 mg/kg/injection, schedule: Q01DX009 (ip), vehicle: saline",110 % of control
same,T/C,[16],93 % of control
N#CC(C#N)=c1ccc(=C(C#N)C#N)cc1,T/C,[6],91 % of control
same,T/C,[3],94 % of control
same,T/C,[8],89 % of control
same,T/C,[4],103 % of control
same,T/C,[10],91 % of control
same,T/C,[5],103 % of control
CCCCCCCCCOc1ccc2ccccc2c1,T/C,[11],102 % of control
same,T/C,[12],97 % of control
same,T/C,[13],92 % of control
CCOP(=O)(OCC)C(=O)N(CC)CC,T/C,"dose: 100.0 mg/kg/injection, schedule: Q01DX009 (ip), vehicle: Klucel (hydroxypropylcellulose) (HPC)",101 % of control
same,T/C,"dose: 200.0 mg/kg/injection, schedule: Q01DX009 (ip), vehicle: Klucel (hydroxypropylcellulose) (HPC)",90 % of control
same,T/C,"dose: 400.0 mg/kg/injection, schedule: Q01DX009 (ip), vehicle: Klucel (hydroxypropylcellulose) (HPC)",91 % of control
COCc1nc2ccccc2[nH]1,T/C,[11],106 % of control
same,T/C,[12],97 % of control
same,T/C,[13],93 % of control
O=C(O)C1=C(C(=O)O)C2CCCC3C4CCCCC4N(N1)C23 (stereo not drawn),T/C,"dose: 75.0 mg/kg/injection, schedule: Q01DX001 (ip), vehicle: acetone",117 % of control
same,T/C,"dose: 150.0 mg/kg/injection, schedule: Q01DX001 (ip), vehicle: acetone",104 % of control
same,T/C,"dose: 300.0 mg/kg/injection, schedule: Q01DX001 (ip), vehicle: acetone",118 % of control
CS(=O)(=O)Nc1cc(Cl)c(NS(C)(=O)=O)c(Cl)c1Cl,T/C,[17],101 % of control
same,T/C,[18],96 % of control
same,T/C,[19],107 % of control
Cc1ccc(Cl)cc1NC(=O)Nc1ccccc1F,T/C,[7],94 % of control
same,T/C,[9],86 % of control and 91 % of control
same,T/C,[17],92 % of control
same,T/C,[10],103 % of control and 105 % of control
same,T/C,"dose: 100.0 mg/kg/injection, schedule: Q04DX002 (ip), vehicle: saline with Tween-80",98 % of control and 92 % of control
same,T/C,[11],104 % of control and 90 % of control
same,T/C,[18],92 % of control
same,T/C,"dose: 200.0 mg/kg/injection, schedule: Q01DX009 (ip), vehicle: saline with Tween-80",98 % of control and 90 % of control
same,T/C,"dose: 200.0 mg/kg/injection, schedule: Q04DX002 (ip), vehicle: saline with Tween-80",95 % of control and 92 % of control
same,T/C,[19],89 % of control
same,T/C,"dose: 400.0 mg/kg/injection, schedule: Q01DX009 (ip), vehicle: saline with Tween-80",94 % of control and 92 % of control
same,T/C,"dose: 400.0 mg/kg/injection, schedule: Q04DX002 (ip), vehicle: saline with Tween-80",90 % of control and 92 % of control
c1ccc([P+](c2ccccc2)(c2ccccc2)c2ccccc2)cc1,T/C,"dose: 2.5 mg/kg/injection, schedule: Q01DX009 (ip), vehicle: saline",110 % of control
same,T/C,"dose: 2.5 mg/kg/injection, schedule: Q04DX003 (ip), vehicle: saline",103 % of control
same,T/C,"dose: 5.0 mg/kg/injection, schedule: Q01DX001 (ip), vehicle: saline",110 % of control
same,T/C,"dose: 5.0 mg/kg/injection, schedule: Q01DX009 (ip), vehicle: saline",114 % of control
same,T/C,"dose: 5.0 mg/kg/injection, schedule: Q04DX003 (ip), vehicle: saline",106 % of control
same,T/C,"dose: 10.0 mg/kg/injection, schedule: Q01DX001 (ip), vehicle: saline",94 % of control
same,T/C,"dose: 10.0 mg/kg/injection, schedule: Q04DX003 (ip), vehicle: saline",109 % of control
C(/C=C/c1ccccc1)=Nc1ccc2c(c1)Cc1ccccc1-2,T/C,"dose: 100.0 mg/kg/injection, schedule: Q04DX003 (ip), vehicle: Klucel (hydroxypropylcellulose) (HPC)",94 % of control
same,T/C,"dose: 200.0 mg/kg/injection, schedule: Q04DX003 (ip), vehicle: Klucel (hydroxypropylcellulose) (HPC)",89 % of control
same,T/C,"dose: 400.0 mg/kg/injection, schedule: Q04DX003 (ip), vehicle: Klucel (hydroxypropylcellulose) (HPC)",89 % of control
CN(C)C(=N)[Se],T/C,"dose: 6.25 mg/kg/injection, schedule: Q01DX009 (ip), vehicle: saline",97 % of control
same,T/C,"dose: 12.5 mg/kg/injection, schedule: Q01DX009 (ip), vehicle: saline",92 % of control
O=c1[nH]cnc2ncnn12,T/C,"dose: 100.0 mg/kg/injection, schedule: Q01DX001 (ip), vehicle: alkali diluted with saline",104 % of control
same,T/C,"dose: 200.0 mg/kg/injection, schedule: Q01DX001 (ip), vehicle: alkali diluted with saline",109 % of control
same,T/C,"dose: 400.0 mg/kg/injection, schedule: Q01DX001 (ip), vehicle: alkali diluted with saline",104 % of control
O=[N+]([O-])c1ccc2[nH]c(O)c(N=Nc3ccccc3[N+](=O)[O-])c2c1,T/C,[4],98 % of control
same,T/C,[5],96 % of control
same,T/C,"dose: 400.0 mg/kg/injection, schedule: Q01DX001 (ip), vehicle: saline",105 % of control
CCC[CH2][Sn]([CH2]C)([CH2]CCC)[CH2]CCC,T/C,[14],93 % of control
same,T/C,[15],93 % of control
same,T/C,[16],95 % of control
